Assay results from PubChem BioAssay (NCI).
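Tested at 5 concentrations; 48 h exposure; 96-well plates; endpoints linearly interpolated, else capped at highest concentration. GI50: concentration for 50% inhibition of growth. TGI is the concentration that stops growth completely.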

Columns and labels:
Test in all cases: NCI tumour cell line growth inhibition, 48 h
SK-MEL-5 melanoma = tested on: SK-MEL-5 melanoma
HL-60(TB) leukemia = tested on: HL-60(TB) leukemia
IGROV1 ovarian = tested on: IGROV1 ovarian
NCI-H522 lung = tested on: NCI-H522 lung
T-47D breast = tested on: T-47D breast
SK-OV-3 ovarian = tested on: SK-OV-3 ovarian
MDA-MB-435 = tested on: MDA-MB-435
SW-620 colon = tested on: SW-620 colon
HCT-116 colon = tested on: HCT-116 colon
NCI-H226 lung = tested on: NCI-H226 lung

Structure (SMILES)	TGI (SK-MEL-5 melanoma)	TGI (HL-60(TB) leukemia)	TGI (IGROV1 ovarian)	TGI (NCI-H522 lung)	TGI (T-47D breast)	TGI (SK-OV-3 ovarian)	TGI (MDA-MB-435)	TGI (SW-620 colon)	TGI (HCT-116 colon)	TGI (NCI-H226 lung)	GI50 (SK-MEL-5 melanoma)	GI50 (HL-60(TB) leukemia)	GI50 (NCI-H226 lung)	GI50 (IGROV1 ovarian)	GI50 (NCI-H522 lung)	GI50 (T-47D breast)	GI50 (MDA-MB-435)	GI50 (SW-620 colon)	GI50 (HCT-116 colon)
COC(=O)C1(C#N)C(C)(C)N=C(c2ccccc2)C12CCCCC2 (stereo unspecified)	> 100 µM	> 100 µM	> 100 µM	> 100 µM	> 100 µM	> 100 µM	> 100 µM	> 100 µM	> 100 µM										
O=C1CSC(c2ccccc2[N+](=O)[O-])N1c1ccc(-c2ccc(-n3c(-c4ccccc4)nc4ccccc4c3=O)cc2)cc1 (stereo unspecified)	> 100 µM	> 100 µM	> 100 µM	> 100 µM	> 100 µM	> 100 µM	> 100 µM	> 100 µM	> 100 µM	> 100 µM									
CCOC(=O)C1=NN(c2ccc([N+](=O)[O-])cc2)[C@@]2(C)C[C@]3(c4ccccc4)N(c4ccc([N+](=O)[O-])cc4)N=C(C(=O)OCC)N3c3ccccc3N12	> 100 µM	> 100 µM	> 100 µM	> 100 µM	> 100 µM	> 100 µM	> 100 µM	> 100 µM	> 100 µM	> 100 µM									
COc1cc(/C=N/n2c(-c3ccccc3)nn(C(C)=O)c2=O)cc(OC)c1OC	6.68 µM	9.68 µM	> 100 µM	8.56 µM	> 100 µM	> 39.9 µM	1.96 µM	> 100 µM	> 100 µM	> 100 µM									
N#Cc1c(-c2ccc(Cl)cc2)[nH]c(=O)n(C2OC(CO)C(O)C(O)C2O)c1=O (stereo unspecified)	> 100 µM	> 100 µM	> 100 µM	> 100 µM	> 100 µM	> 100 µM	> 100 µM	> 100 µM	> 100 µM	> 100 µM									
S=C1CCSc2c(ccc3ccccc23)N1	> 100 µM	> 100 µM	> 100 µM	> 100 µM	> 100 µM	> 100 µM	> 100 µM		> 100 µM	> 100 µM									
O=C(c1ccccc1)c1ccc2[nH]c(-c3c(Cl)c(Cl)c(Cl)c(Cl)c3C(=O)N/N=C/c3cccc(Oc4ccccc4)c3)nc2c1	> 100 µM	> 100 µM	> 100 µM	> 100 µM	> 100 µM	> 100 µM	> 100 µM	> 100 µM	> 100 µM	> 100 µM									
COc1ccc(Cc2nnc(Nc3ccc(Br)cc3)[nH]c2=O)cc1OC	> 100 µM	> 100 µM	> 100 µM	> 100 µM	> 100 µM	> 100 µM	20.7 µM	> 100 µM	> 100 µM	> 100 µM									
CC(=O)Nc1c(C)cc2c(nc3n2CCC3OC(C)=O)c1[N+](=O)[O-] (stereo unspecified)	> 100 µM	> 100 µM	> 100 µM	> 100 µM	> 100 µM	> 100 µM	> 100 µM	> 100 µM	> 100 µM	> 100 µM									
CN1C(=O)C2(C=CC(O)CC2)c2ccccc21 (stereo unspecified)	> 100 µM	> 100 µM	> 100 µM	> 100 µM	> 100 µM	> 100 µM	> 100 µM	> 100 µM	> 100 µM	> 100 µM									
CN(C)CCn1c(=O)c2ccc(NCCN3CCNCC3)c3c(=O)c4ccccc4n(c1=O)c23	12.7 µM	18.4 µM	12.1 µM	10 µM	28.9 µM	24.6 µM	9.01 µM	21.3 µM	12.8 µM	15.2 µM									
O=C(Nc1ccc(-n2ccc3c(NC(=O)c4ccccc4)ncnc32)cc1)Nc1ccc(Cl)c(Cl)c1	15.1 µM	30.6 µM	18.2 µM	7.34 µM	11.7 µM		11.5 µM	5.31 µM	5.06 µM	29.2 µM	7.05 µM	8.18 µM	11.7 µM	7.16 µM	1.28 µM	3.32 µM	2.44 µM	1.54 µM	1.66 µM
Cc1cc(Cc2cc(C)c(NC(=O)C(=O)C3CCC4=C(SC5C=CC=CC5N4)C3=O)c(C(C)C)c2)cc(C(C)C)c1NC(=O)C(=O)C1CCC2=C(SC3C=CC=CC3N2)C1=O (stereo unspecified)	> 100 µM	> 100 µM	> 100 µM	67.2 µM	> 100 µM	> 100 µM	> 100 µM	> 100 µM	> 100 µM	> 100 µM									
Cn1c(=O)c2c(nc3n2CCCC(=O)N3CC(O)CCl)n(C)c1=O (stereo unspecified)	> 100 µM	> 100 µM	> 100 µM	> 100 µM	> 100 µM	> 100 µM	> 100 µM	> 100 µM	> 100 µM	> 100 µM									
NC(=O)Cc1nc2c(N)ncnc2n1C1OC(CO)C(O)C1O (stereo unspecified)	> 100 µM	> 100 µM	> 100 µM	> 100 µM	> 100 µM	> 100 µM	> 100 µM	> 100 µM	> 100 µM	> 100 µM									
CCOC(=O)C(Cc1ccc(OC(=O)c2ccc(OC)cc2)cc1)NC(=O)C(F)(F)F (stereo unspecified)	> 100 µM	> 100 µM	> 100 µM	> 100 µM	> 100 µM	> 100 µM	> 100 µM	> 100 µM	> 100 µM	> 100 µM									
CC1(C)Cc2nc3c(cc2C(=O)C1C=N/C(C#N)=C(\N)C#N)C(=O)C(C=N/C(C#N)=C(\N)C#N)C(C)(C)C3 (stereo unspecified)	4.66 µM	10.1 µM	3.56 µM	2.3 µM	4.3 µM	> 34.9 µM	3.48 µM	> 20.5 µM	2.96 µM	12.7 µM									
CC(C)C(=O)Nc1cc(C(F)(F)F)ccc1[N+](=O)[O-]	> 100 µM	> 100 µM	> 100 µM	> 100 µM	> 100 µM	> 100 µM	> 100 µM	> 100 µM	> 100 µM	> 100 µM									
COc1ccc(CCCNC(=O)c2cc(OC)c(OC)cc2CCO)cc1OC	> 100 µM	> 100 µM	> 100 µM	> 100 µM	> 100 µM	> 100 µM	> 100 µM	> 100 µM	> 100 µM	> 100 µM									
